Laboratory results from patent US8735364B2, “Antisense modulation of apolipoprotein B expression” (Genzyme Corporation, priority 2001, dated 2014).
Oligonucleotides are written 5' to 3', each unit as a sugar letter and its base; * is a phosphorothioate linkage, no mark a phosphodiester; rarer units and linkages stand in square brackets, end groups in braces. Plain capitals give the bases only. e = 2'-O-(2-methoxyethyl) (MOE); [5mC] = 5-methylcytosine; d = 2'-deoxy (DNA)

System: mouse apolipoprotein B mRNA
Assay: Inhibition of mouse apolipoprotein B mRNA levels in primary hepatocytes, quantitative real-time PCR
Type: cell-based
Design: %INHIB of mouse apolipoprotein B mRNA levels: concentration or dose not given beside the values
Details: for %INHIB of mouse apolipoprotein B mRNA levels: averages from two experiments
Protocol: Primary mouse hepatocytes were prepared from CD-1 mice purchased from Charles River Labs (Wilmington, Mass.) and were routinely cultured in Hepatoyte Attachment Media (Gibco) supplemented with 10% Fetal Bovine Serum (Gibco/Life Technologies, Gaithersburg, Md.), 250 nM dexamethasone (Sigma), and 10 nM bovine insulin (Sigma). Cells were seeded into 96-well plates (Falcon-Primaria #3872) at a density of 10000 cells/well for use in RT-PCR analysis.
When cells reached 80% confluency, they were treated with oligonucleotide. For cells grown in 96-well plates, wells were washed once with 200 μL OPTI-MEM™-1 reduced-serum medium (Gibco BRL) and then treated with 130 μL of OPTI-MEM™-1 containing 3.75 μg/mL LIPOFECTIN™ (Gibco BRL) and the desired concentration of oligonucleotide. After 4-7 hours of treatment, the medium was replaced with fresh medium. Cells were harvested 16-24 hours after oligonucleotide treatment.
Quantitation of apolipoprotein B mRNA levels was determined by real-time quantitative PCR using the ABI PRISM™ 7700 Sequence Detection System (PE-Applied Biosystems, Foster City, Calif.) according to manufacturer's instructions. This is a closed-tube, non-gel-based, fluorescence detection system which allows high-throughput quantitation of polymerase chain reaction (PCR) products in real-time. As opposed to standard PCR, in which amplification products are quantitated after the PCR is completed, products in real-time quantitative PCR are quantitated as they accumulate. This is accomplished by including in the PCR reaction an oligonucleotide probe that anneals specifically between the forward and reverse PCR primers, and contains two fluorescent dyes. A reporter dye (e.g., JOE, FAM, or VIC, obtained from either Operon Technologies Inc., Alameda, Calif. or PE-Applied Biosystems, Foster City, Calif.) is attached to the 5′ end of the probe and a quencher dye (e.g., TAMRA, obtained from either Operon Technologies Inc., Alameda, Calif. or PE-Applied Biosystems, Foster City, Calif.) is attached to the 3′ end of the probe. When the probe and dyes are intact, reporter dye emission is quenched by the proximity of the 3′ quencher dye. During amplification, annealing of the probe to the target sequence creates a substrate that can be cleaved by the 5′-exonuclease activity of Taq polymerase. […] With each cycle, additional reporter dye molecules are cleaved from their respective probes, and the fluorescence intensity is monitored at regular intervals by laser optics built into the ABI PRISM™ 7700 Sequence Detection System. In each assay, a series of parallel reactions containing serial dilutions of mRNA from untreated control samples generates a standard curve that is used to quantitate the percent inhibition after antisense oligonucleotide treatment of test samples.
PCR reagents were obtained from PE-Applied Biosystems, Foster City, Calif. RT-PCR reactions were carried out by adding 25 μL PCR cocktail (1× TAQMAN™ buffer A, 5.5 mM MgCl2, 300 μM each of DATP, dCTP and dGTP, 600 μM of dUTP, 100 nM each of forward primer, reverse primer, and probe, 20 Units RNAse inhibitor, 1.25 Units AMPLITAQ GOLD™, and 12.5 Units MuLV reverse transcriptase) to 96 well plates containing 25 μL total RNA solution. The RT reaction was carried out by incubation for 30 minutes at 48° C. Following a 10 minute incubation at 95° C. to activate the AMPLITAQ GOLD™, 40 cycles of a two-step PCR protocol were carried out: 95° C. for 15 seconds (denaturation) followed by 60° C. for 1.5 minutes (annealing/extension).
Gene target quantities obtained by real time RT-PCR are normalized using either the expression level of GAPDH, a gene whose expression is constant, or by quantifying total RNA using RiboGreen™ (Molecular Probes, Inc. Eugene, Oreg.). GAPDH expression is quantified by real time RT-PCR, by being run simultaneously with the target, multiplexing, or separately. Total RNA is quantified using RiboGreen™ RNA quantification reagent from Molecular Probes. […]

Substance	%INHIB of mouse apolipoprotein B mRNA levels [%]	other results
147767 (antisense e[5mC]*eG*eT*e[5mC]*e[5mC]*dT*dT*dG*dA*dG*d[5mC]*dA*dG*dT*dG*e[5mC]*e[5mC]*e[5mC]*eG*eA) [compound 147767]	5	
147488 (antisense eA*eG*e[5mC]*eT*eT*dG*d[5mC]*dT*dT*dG*dT*dT*dG*dG*dG*e[5mC]*eA*e[5mC]*eG*eG) [compound 147488]	72	
147499 (antisense e[5mC]*eT*eG*e[5mC]*eA*dG*dG*dG*d[5mC]*dG*dT*d[5mC]*dA*dG*dT*eG*eA*e[5mC]*eA*eA) [compound 147499]	29	
147506 (antisense eA*eG*eG*eA*eA*dG*dG*dA*dA*d[5mC]*dT*d[5mC]*dT*dT*dG*eA*eT*eA*eT*eT) [compound 147506]	58	
147759 (antisense eA*eG*eG*eT*eG*dA*dG*dG*dA*dA*dG*dT*dT*dG*dG*eA*eA*eT*eT*e[5mC]) [compound 147759]	19	
147772 (antisense eG*eT*eT*eA*eT*dA*dA*dA*dG*dT*d[5mC]*d[5mC]*dA*dG*d[5mC]*eA*eT*eT*eG*eG) [compound 147772]	78	
147507 (antisense eA*eT*eT*eG*eG*d[5mC]*dT*dT*d[5mC]*dA*dT*dT*dG*dG*d[5mC]*eA*eA*e[5mC]*eA*e[5mC]) [compound 147507]	81	
147502 (antisense eA*eT*eG*eG*eG*dA*dG*d[5mC]*dA*dT*dG*dG*dA*dG*dG*eT*eT*eG*eG*e[5mC]) [compound 147502]	16	
147763 (antisense eT*eG*e[5mC]*eG*eA*d[5mC]*dT*dG*dT*dG*dT*d[5mC]*dT*dG*dA*eT*eT*eT*e[5mC]*e[5mC]) [compound 147763]	34	
147484 (antisense eT*eT*e[5mC]*eA*eT*d[5mC]*d[5mC]*dG*dA*dG*dA*dA*dG*dT*dT*eG*eG*eG*eA*e[5mC]) [compound 147484]	49	
147489 (antisense e[5mC]*e[5mC]*eT*eA*eT*dA*d[5mC]*dT*dG*dG*d[5mC]*dT*dT*d[5mC]*dT*eA*eT*eG*eT*eT) [compound 147489]	5	
147766 (antisense eG*eG*eA*eG*e[5mC]*d[5mC]*d[5mC]*dA*d[5mC]*dG*dT*dG*d[5mC]*dT*dG*eA*eG*eA*eT*eT) [compound 147766]	59	
147774 (antisense eT*eG*eG*e[5mC]*eT*dA*dG*dT*dT*dT*d[5mC]*dA*dA*dT*d[5mC]*e[5mC]*e[5mC]*e[5mC]*eT*eT) [compound 147774]	84	
147773 (antisense e[5mC]*eA*eT*e[5mC]*eA*dG*dA*d[5mC]*dG*dT*dG*dA*dT*dG*dT*eT*e[5mC]*e[5mC]*e[5mC]*eT) [compound 147773]	85	
147496 (antisense eA*e[5mC]*e[5mC]*eA*eT*dG*dG*dA*dA*dA*dA*d[5mC]*dT*dG*dG*e[5mC]*eA*eA*e[5mC]*eT) [compound 147496]	19	
147764 (antisense eG*eT*e[5mC]*e[5mC]*e[5mC]*dT*dG*dA*dA*dG*dA*dT*dG*dT*d[5mC]*eA*eA*eT*eG*e[5mC]) [compound 147764]	97	Percent Inhibition of mouse apolipoprotein B mRNA levels (50 nM): 48%; Percent Inhibition of mouse apolipoprotein B mRNA levels (150 nM): 84%; Percent Inhibition of mouse apolipoprotein B mRNA levels (300 nM): 90%

Substance	%INHIB of mouse apolipoprotein B mRNA levels [%]	other results
147498 (antisense eT*eG*eG*eG*e[5mC]*dA*dA*d[5mC]*dG*dA*dT*dA*dT*d[5mC]*dT*eG*eA*eT*eT*eG) [compound 147498]	0	
147761 (antisense eG*eT*eT*e[5mC]*eA*dT*dG*dG*dA*dT*dT*d[5mC]*d[5mC]*dT*dT*e[5mC]*eA*eG*eG*eA) [compound 147761]	45	
147480 (antisense eT*e[5mC]*eT*e[5mC]*eA*d[5mC]*d[5mC]*d[5mC]*dT*d[5mC]*dA*dT*dG*d[5mC]*dT*e[5mC]*e[5mC]*eA*eT*eT) [compound 147480]	54	
147487 (antisense eT*eT*e[5mC]*e[5mC]*e[5mC]*dA*dG*dT*d[5mC]*dA*dG*d[5mC]*dT*dT*dT*eA*eG*eT*eG*eG) [compound 147487]	73	
147769 (antisense e[5mC]*eA*eT*eG*e[5mC]*d[5mC]*dT*dG*dG*dA*dA*dG*d[5mC]*d[5mC]*dA*eG*eT*eG*eT*e[5mC]) [compound 147769]	89	Percent Inhibition of mouse apolipoprotein B mRNA levels (50 nM): 3%; Percent Inhibition of mouse apolipoprotein B mRNA levels (150 nM): 14%; Percent Inhibition of mouse apolipoprotein B mRNA levels (300 nM): 28%
147494 (antisense eA*e[5mC]*eA*eA*e[5mC]*dT*dG*dG*dG*dA*dT*dA*dG*dT*dG*eT*eA*eG*e[5mC]*e[5mC]) [compound 147494]	84	
147775 (antisense e[5mC]*eT*eG*eT*e[5mC]*dA*dT*dG*dA*d[5mC]*dT*dG*d[5mC]*d[5mC]*d[5mC]*eT*eT*eT*eA*e[5mC]) [compound 147775]	52	
147770 (antisense eG*eT*eG*eT*eT*dG*dA*dA*dT*d[5mC]*d[5mC]*d[5mC]*dT*dT*dG*eA*eA*eA*eT*e[5mC]) [compound 147770]	67	
147765 (antisense eA*eG*eG*e[5mC]*e[5mC]*d[5mC]*dA*dG*dT*dT*d[5mC]*d[5mC]*dA*dT*dG*eA*e[5mC]*e[5mC]*e[5mC]*eT) [compound 147765]	59	
147768 (antisense e[5mC]*e[5mC]*e[5mC]*eA*eT*dA*dT*dG*dG*dA*dG*dA*dA*dA*dT*e[5mC]*e[5mC]*eT*eT*e[5mC]) [compound 147768]	24	
147482 (antisense eG*eT*e[5mC]*e[5mC]*eA*dG*d[5mC]*d[5mC]*dT*dA*dG*dG*dA*dA*d[5mC]*eA*e[5mC]*eT*e[5mC]*eA) [compound 147482]	59	
147501 (antisense e[5mC]*eT*eT*eG*eG*dT*dT*dA*dA*dA*d[5mC]*dT*dA*dA*dT*eG*eG*eT*eG*e[5mC]) [compound 147501]	18	
147776 (antisense eG*e[5mC]*eT*eT*eG*dA*dA*dG*dT*dT*d[5mC]*dA*dT*dT*dG*eA*eG*eA*eA*eT) [compound 147776]	92	Percent Inhibition of mouse apolipoprotein B mRNA levels (50 nM): 0%; Percent Inhibition of mouse apolipoprotein B mRNA levels (150 nM): 17%; Percent Inhibition of mouse apolipoprotein B mRNA levels (300 nM): 44%
147762 (antisense eA*eT*eG*e[5mC]*eT*d[5mC]*d[5mC]*dA*dT*dT*d[5mC]*dT*d[5mC]*dA*d[5mC]*eA*eT*eG*e[5mC]*eT) [compound 147762]	46	
147505 (antisense eG*eG*eA*eA*eG*dT*dG*dA*dG*dA*d[5mC]*dT*dT*dT*d[5mC]*eT*eA*eA*eG*e[5mC]) [compound 147505]	76	
147476 (antisense eG*eA*eG*eG*eA*dG*dA*dT*dT*dG*dG*dA*dT*d[5mC]*dT*eT*eA*eA*eG*eG) [compound 147476]	13	
